{"source": "patent US11242340B2", "about": "“Crystal forms of demethyleneberberine hydrochloride and preparation method therefor” (priority 2018, dated 2022)", "key": {"[1]": {"test": "Stability in strong light irradiation experiment (4,500 lx±500 lx)", "type": "physicochemical", "from_the_text": "Demethyleneberberine hydrochloride crystals A, B, C and D are taken in an appropriate amount and placed in plates numbered as A3, B3, C3 and D3 respectively, and then the plates are placed in a strong light irradiation environment at 4,500 lx±500 lx respectively for stability test."}, "[2]": {"test": "Stability in high-temperature experiment (60±2° C.)", "type": "physicochemical", "procedure": "Demethyleneberberine hydrochloride crystals A, B, C and D are taken in an appropriate amount and placed in plates numbered as A1, B1, C1 and D1 respectively, and then the plates are placed in a high-temperature environment at 60±2° C. respectively for stability test."}, "[3]": {"test": "Determination of blood concentration in rats after ig administration", "type": "in vivo", "conditions": "male SD rats, ig 200 mg/kg, plasma, hydrochloride", "procedure": "Male SD rats are adaptively bred for 3 days, and rats having (220±20) g body weight are selected and divided into 5 groups, namely, blank group, demethyleneberberine hydrochloride crystal form A group, demethyleneberberine hydrochloride crystal form B group, demethyleneberberine hydrochloride crystal form C group and demethyleneberberine hydrochloride crystal form D group. Food supply is stopped for 12 h for gastric emptying before the experiment. For the rats in the experimental groups, ig (intragastric) administration dosage is 200 mg/kg. 0.2 ml of blood is taken from the orbits of the rats at 5 min., 15 min., 30 min., 1 h, 2 h, 6 h and 12 h respectively after ig administration, the whole blood is centrifuged, and 100 μl of plasma is taken and frozen at −20° C. for use later. 100 μl of plasma sample is taken, 200 μl of methanol is added into the plasma sample, the mixture is vortexed for 5 min., and then centrifuged at 10,000 r/min. for 15 min. in a centrifuge; the supernatant is taken and tested by HPLC. […] Through calculation on the basis of the experimental results, it is determined: DAUC=3.675 μg×ml^−1×h>AAUC=1.247 μg×ml^−1×h>BAUC=1.150 μg×ml^−1×h>CAUC=1.077 μg×ml^−1×h."}, "[4]": {"test": "Stability in high-humidity experiment (RH90±5%)", "type": "physicochemical", "from_the_text": "Demethyleneberberine hydrochloride crystals A, B, C and D are taken in an appropriate amount and placed in plates numbered as A2, B2, C2 and D2 respectively, and then the plates are placed in a high-humidity environment at RH90±5% respectively for stability test."}, "[5]": {"test": "Solubility in ethanol system at different temperatures, HPLC", "type": "physicochemical", "conditions": "FIG. 15, hydrochloride", "quoted_text": "Demethyleneberberine hydrochloride crystals A, B, C and D are taken in an appropriate amount and the solubility of demethyleneberberine hydrochloride crystals A, B, C and D at different temperatures in an ethanol system is studied respectively. 20 μl of sample is taken at each temperature node and detected by HPLC."}, "[6]": {"test": "Solubility in methanol system at different temperatures, HPLC", "type": "physicochemical", "conditions": "FIG. 14, hydrochloride", "quoted_text": "Demethyleneberberine hydrochloride crystals A, B, C and D are taken in an appropriate amount and the solubility of demethyleneberberine hydrochloride crystals A, B, C and D at different temperatures in a methanol system is studied respectively. 20 μl of sample is taken at each temperature node and detected by HPLC."}, "[7]": {"test": "Solubility in water system at different temperatures, HPLC", "type": "physicochemical", "conditions": "hydrochloride", "quoted_text": "Demethyleneberberine hydrochloride crystals A, B, C and D are taken in an appropriate amount and the solubility of demethyleneberberine hydrochloride crystals A, B, C and D at different temperatures in a water system is studied respectively. 20 μl of sample is taken at each temperature node and detected by HPLC."}, "[8]": {"conditions": "day 0, listed as C3, hydrochloride"}, "[9]": {"conditions": "day 5, listed as C3, hydrochloride"}, "[10]": {"conditions": "day 10, listed as C3, hydrochloride"}, "[11]": {"conditions": "60±2° C., day 0, listed as C1, hydrochloride"}, "[12]": {"conditions": "60±2° C., day 5, listed as C1, hydrochloride"}, "[13]": {"conditions": "60±2° C., day 10, listed as C1, hydrochloride"}, "[14]": {"conditions": "day 0, listed as C2, hydrochloride"}, "[15]": {"conditions": "day 5, listed as C2, hydrochloride"}, "[16]": {"conditions": "day 10, listed as C2, hydrochloride"}}, "note": "“Also recorded” adds a separate entry of the source. Where a name gives a salt, the structure may show the parent alone."}
{"smiles": "COc1ccc2cc3[n+](cc2c1OC)CCc1cc(O)c(O)cc1-3", "note": "[crystal form C, demethyleneberberine hydrochloride]", "values": [{"measurement": "X-Ray Powder Diffraction", "setting": "[1]; day 0", "value": "Unchanged"}, {"measurement": "Content (%)", "setting": "[1]; [8]", "value": 99.57, "unit": "%"}, {"measurement": "Content of Relevant Substance (%)", "setting": "[1]; [8]", "value": 0.43, "unit": "%"}, {"measurement": "X-Ray Powder Diffraction", "setting": "[1]; day 5", "value": "Unchanged"}, {"measurement": "Content (%)", "setting": "[1]; [9]", "value": 99.49, "unit": "%"}, {"measurement": "Content of Relevant Substance (%)", "setting": "[1]; [9]", "value": 0.51, "unit": "%"}, {"measurement": "Content (%)", "setting": "[1]; [10]", "value": 99.55, "unit": "%"}, {"measurement": "Content of Relevant Substance (%)", "setting": "[1]; [10]", "value": 0.45, "unit": "%"}, {"measurement": "X-Ray Powder Diffraction", "setting": "[1]; [10]", "value": "Unchanged"}, {"measurement": "Stability in the strong light irradiation environment", "setting": "[1]; hydrochloride", "value": "relatively stable"}, {"measurement": "X-Ray Powder Diffraction", "setting": "[2]; 60±2° C., day 0", "value": "Unchanged"}, {"measurement": "Content (%)", "setting": "[2]; [11]", "value": 99.18, "unit": "%"}, {"measurement": "Content of Relevant Substance (%)", "setting": "[2]; [11]", "value": 0.82, "unit": "%"}, {"measurement": "X-Ray Powder Diffraction", "setting": "[2]; 60±2° C., day 5", "value": "Unchanged"}, {"measurement": "Content (%)", "setting": "[2]; [12]", "value": 99.21, "unit": "%"}, {"measurement": "Content of Relevant Substance (%)", "setting": "[2]; [12]", "value": 0.79, "unit": "%"}, {"measurement": "Content (%)", "setting": "[2]; [13]", "value": 99.19, "unit": "%"}, {"measurement": "Content of Relevant Substance (%)", "setting": "[2]; [13]", "value": 0.81, "unit": "%"}, {"measurement": "X-Ray Powder Diffraction", "setting": "[2]; [13]", "value": "Unchanged"}, {"measurement": "Stability in the high-temperature environment", "setting": "[2]; 60±2° C., hydrochloride", "value": "relatively stable"}, {"measurement": "Stability under stability test conditions (summary)", "setting": "[2]; summary over high temperature, high humidity and strong light irradiation, hydrochloride", "value": "stable"}, {"measurement": "AUC", "setting": "[3]; calculated from the experimental results", "value": 1077, "unit": "ng·h/mL"}, {"measurement": "Cmax", "setting": "[3]", "value": 1262, "unit": "ng/mL"}, {"measurement": "tmax", "setting": "[3]", "value": 30, "unit": "min"}, {"measurement": "Stability in the high-humidity environment", "setting": "[4]", "value": "relatively stable"}, {"measurement": "X-Ray Powder Diffraction", "setting": "[4]; day 0", "value": "Unchanged"}, {"measurement": "Content (%)", "setting": "[4]; [14]", "value": 99.77, "unit": "%"}, {"measurement": "Content of Relevant Substance (%)", "setting": "[4]; [14]", "value": 0.23, "unit": "%"}, {"measurement": "X-Ray Powder Diffraction", "setting": "[4]; day 5", "value": "Unchanged"}, {"measurement": "Content (%)", "setting": "[4]; [15]", "value": 99.72, "unit": "%"}, {"measurement": "Content of Relevant Substance (%)", "setting": "[4]; [15]", "value": 0.28, "unit": "%"}, {"measurement": "X-Ray Powder Diffraction", "setting": "[4]; day 10", "value": "Unchanged"}, {"measurement": "Content (%)", "setting": "[4]; [16]", "value": 99.57, "unit": "%"}, {"measurement": "Content of Relevant Substance (%)", "setting": "[4]; [16]", "value": 0.43, "unit": "%"}, {"measurement": "Solubility ranking among the four crystal forms", "setting": "[5]", "value": ">solubility of crystal form B of demethyleneberberine hydrochloride"}, {"measurement": "Solubility ranking among the four crystal forms", "setting": "[6]", "value": ">solubility of crystal form B of demethyleneberberine hydrochloride"}, {"measurement": "Solubility comparison of the four crystal forms (summary)", "setting": "[7]; summary over water, methanol and ethanol systems", "value": "highest; also recorded: >solubility of crystal form B of demethyleneberberine hydrochloride"}, {"measurement": "Solubility ranking among the four crystal forms", "setting": "[7]; water system, different temperatures, FIG. 13", "value": ">solubility of crystal form B of demethyleneberberine hydrochloride"}]}
